# “Also recorded” adds a separate entry of the source.
# Columns and labels:
# NMNAT = biological target: T1, NMNAT (Mus musculus, UniProt Q9EPA7); assay: Isothermal titration calorimetry (ITC); type: binding; conditions: 554 μM MS0 into 25 μM protein, 25 °C
# T1 construct: His-tag; made in house; host or cells: E. coli BL21-CodonPlus (DE3)-RIL
# Experimental: Thermodynamic parameters of small molecule binding to protein were determined using a MicroCal VP-ITC calorimeter. NMNAT protein solutions were ultrafiltrated in Amicon Ultra-0.5 Centrifugal Filter Unit (Merck Millipore) against buffer [20 mM Tris (pH 7.5), 20 mM NaCl], which was subsequently used to prepare a matched compound solution. […] Measurements were performed at 25 °C with spacing of 90 s between injections.
# Pr otei n e xp ressi on andpur ification
# Prot eins were expres se d and pur ified by our pr e vi ous methods2,3. […]
# The pur ity of the pr ot ein was more tha n 90% de term ine d by SDS-PAGE and Coo massi e Blue (Tiange n, C hi na) staining and f ur the r by w est ern bl ot a na lysi s (Fig. S1).
# High t hrou ghput sc reen ing (HTS)
# HTS was pe rfor med usi ng our previ ously repor ted method 3. 0.5 μl st oc k of each com poun d (1 mM DMSO st oc k) was transf erred to a 96-well PCR pl ate for sc ree ni ng. […] Fina lly, 85 μl mixt ur es in each well were transf erred int o a flat-bottom 96-well black plate (Greiner) , and the fluoresc enc e (F) was measured usi ng a Teca n Inf inity M200 pl ate reader (Tecan Group Lt d.) by se tting the exc itation and emissi on wave leng th to 382 nm and 445nm respe ctive ly. […]
# [1] = system: ovarian cancer cell line A2780; assay: SRB assay in A2780; type: cell-based, human; conditions: A2780, 72 hours
# Experimental: Sulfor hod am ine B p rotei n st ai ning (SRB) assay
# Cell pr oliferat ion was eva lua ted by sul for hod amine B pr ot ein st aini ng (SRB) assa y10-12.
# Briefly, cel ls were se ede d int o 96-well pl ates, cul tur ed overni ght , and trea ted with correspond ing com poun ds for 72 h. Cells were the n fixe d with 10% trichl or oa cetic aci d and st ained with sul for hoda mine B (Sigm a). Sul for hoda mine B in the cells was di sso lved in 10 mmol/L Tris-HCl and was measured at 515 nm usi ng a multiw ell spect ropho tometer (VERSA max, Mol ecul ar Devi ces, Sunnyva le, CA). The inhi bi tion rat e on cell pr olif eratio n was cal culated for each well as (A515contr ol cells-A 515tr eated cells)/A515contr ol cells×100 % (A515:
# OD va lue at 515 nm ). The averag e IC50 va lue s were de termine d by Logit method from at leas t t hr eei nde pe nde nt test s.
# T1 sequence (Q9EPA7 whole entry): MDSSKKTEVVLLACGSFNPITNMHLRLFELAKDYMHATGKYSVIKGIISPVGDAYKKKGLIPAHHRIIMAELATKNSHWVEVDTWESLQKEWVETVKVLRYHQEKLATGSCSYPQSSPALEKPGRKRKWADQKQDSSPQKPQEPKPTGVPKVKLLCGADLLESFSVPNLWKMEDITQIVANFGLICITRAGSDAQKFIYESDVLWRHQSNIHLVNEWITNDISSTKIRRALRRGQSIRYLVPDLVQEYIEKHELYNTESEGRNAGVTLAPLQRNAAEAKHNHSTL
smiles,measurement,setting,value
O=S(=O)(c1ccc(NC(=S)NCc2cccnc2)cc1)N1CCCCC1 [MS0],interaction with NMNAT by ITC,NMNAT,did not detect an interaction; also recorded: does not show detectable interaction
same,"growth inhibition (SRB, in words)",[1],potent growth inhibition

# — paper PMC4603696, “Discovery and characterization of novel small-molecule inhibitors targeting nicotinamide phosphoribosyltransferase” (Scientific Reports, 2015)
